Source: ChEMBL document CHEMBL1144386, “Synthesis of O-galactosyl aldoximes as potent LacNAc-mimetic galectin-3 inhibitors” (Bioorg Med Chem Lett, 2005)

Test: Dissociation constant against galectin-3 using competitive fluorescence polarization

O=[N+]([O-])c1cccc(/C=N/O[C@@H]2OC(CO)C(O)[C@H](O)C2O)c1 (stereo partly specified)
Kd: 530 µM

Cc1ccc(O)c(/C=N/O[C@@H]2OC(CO)C(O)[C@H](O)C2O)c1 (stereo partly specified)
Kd: 2600 µM

OCC1O[C@@H](O/N=C/c2cccc(OC(F)(F)F)c2)C(O)[C@@H](O)C1O (stereo partly specified)
Kd: 2200 µM

OCC1O[C@@H](O/N=C/c2cccc3ccccc23)C(O)[C@@H](O)C1O (stereo partly specified)
Kd: 370 µM

OCC1O[C@@H](O/N=C/c2ccc(-c3ccccc3)cc2)C(O)[C@@H](O)C1O (stereo partly specified)
Kd: 6000 µM

OCC1O[C@@H](O/N=C/c2ccccc2O)C(O)[C@@H](O)C1O (stereo partly specified)
Kd: 1800 µM

OCC1O[C@@H](O/N=C/c2c[nH]c3ccccc23)C(O)[C@@H](O)C1O (stereo partly specified)
Kd: 330 µM

OCC1O[C@@H](O/N=C/c2ccc(F)cc2)C(O)[C@@H](O)C1O (stereo partly specified)
Kd: 3100 µM

COc1ccc(/C=N/O[C@@H]2OC(CO)C(O)[C@H](O)C2O)c(O)c1 (stereo partly specified)
Kd: 1700 µM

OCC1O[C@@H](O/N=C/c2cccc(O)c2)C(O)[C@@H](O)C1O (stereo partly specified)
Kd: 1800 µM

OC[C@H]1O[C@@H](O/N=C/c2c[nH]c3ccccc23)[C@H](O)[C@@H](O)[C@H]1O
Kd: 220 µM

C/C=N/O[C@@H]1OC(CO)C(O)[C@H](O)C1O (stereo partly specified)
Kd: 5700 µM

O=[N+]([O-])c1ccc(/C=N/O[C@@H]2OC(CO)C(O)[C@H](O)C2O)o1 (stereo partly specified)
Kd: 1600 µM

OCC1O[C@@H](O/N=C/c2ccccc2F)C(O)[C@@H](O)C1O (stereo partly specified)
Kd: > 10000 µM

OCC1O[C@@H](O/N=C/c2ccoc2)C(O)[C@@H](O)C1O (stereo partly specified)
Kd: > 10000 µM

OCC1O[C@@H](O/N=C/CCl)C(O)[C@@H](O)C1O (stereo partly specified)
Kd: 5300 µM

NO[C@@H]1OC(CO)C(O)[C@H](O)C1O (stereo partly specified)
Kd: 5500 µM

OCC1O[C@@H](O/N=C/c2ccc(Br)cc2)C(O)[C@@H](O)C1O (stereo partly specified)
Kd: 690 µM

CC(=O)Nc1ccc(/C=N/O[C@@H]2OC(CO)C(O)[C@H](O)C2O)cc1 (stereo partly specified)
Kd: 4100 µM

OCC1O[C@@H](O/N=C/c2cccc(-c3ccccc3)c2)C(O)[C@@H](O)C1O (stereo partly specified)
Kd: 2900 µM

OCC1O[C@@H](O/N=C/c2ccc(O)cc2)C(O)[C@@H](O)C1O (stereo partly specified)
Kd: 4800 µM

CCn1c2ccccc2c2cc(/C=N/O[C@@H]3OC(CO)C(O)[C@H](O)C3O)ccc21 (stereo partly specified)
Kd: 2200 µM

OCC1O[C@@H](O/N=C/c2ccc(OCc3ccccc3)cc2)C(O)[C@@H](O)C1O (stereo partly specified)
Kd: > 10000 µM

OCC1O[C@@H](O/N=C/c2ccccc2-c2ccccc2)C(O)[C@@H](O)C1O (stereo partly specified)
Kd: 2900 µM

OCC1O[C@@H](O/N=C/C(c2ccccc2)c2ccccc2)C(O)[C@@H](O)C1O (stereo partly specified)
Kd: 7200 µM

COc1cccc(/C=N/O[C@@H]2OC(CO)C(O)[C@H](O)C2O)c1O (stereo partly specified)
Kd: 1700 µM

C=NO[C@@H]1OC(CO)C(O)[C@H](O)C1O (stereo partly specified)
Kd: 8900 µM

O=[N+]([O-])c1ccc(/C=N/O[C@@H]2OC(CO)C(O)[C@H](O)C2O)cc1 (stereo partly specified)
Kd: 2200 µM

Cc1ccccc1/C=N/O[C@@H]1O[C@@H](CO)[C@H](O)[C@H](O)[C@@H]1O
Kd: 5700 µM

OCC1O[C@@H](O/N=C/c2ccc3ccccc3c2)C(O)[C@@H](O)C1O (stereo partly specified)
Kd: 2300 µM

CN(C)c1ccc(/C=N/O[C@@H]2OC(CO)C(O)[C@H](O)C2O)cc1 (stereo partly specified)
Kd: 9000 µM

OCC1O[C@@H](O/N=C/c2ccc(O)c(O)c2)C(O)[C@@H](O)C1O (stereo partly specified)
Kd: 550 µM

O=[N+]([O-])c1ccc(/C=N/O[C@@H]2OC(CO)C(O)[C@H](O)C2O)c([N+](=O)[O-])c1 (stereo partly specified)
Kd: 1800 µM

OCC1O[C@@H](O/N=C/C2CCCCC2)C(O)[C@@H](O)C1O (stereo partly specified)
Kd: 4800 µM

OCC1O[C@@H](O/N=C\C2C[C@H]3C=CC2C3)C(O)[C@@H](O)C1O (stereo partly specified)
Kd: 4800 µM

OCC1O[C@@H](O/N=C/c2ccccc2OC(F)(F)F)C(O)[C@@H](O)C1O (stereo partly specified)
Kd: 3800 µM

OCC1O[C@@H](O/N=C/c2ccc(O)cc2O)C(O)[C@@H](O)C1O (stereo partly specified)
Kd: 840 µM

CC(C)(C)c1ccc(/C=N/O[C@@H]2OC(CO)C(O)[C@H](O)C2O)cc1 (stereo partly specified)
Kd: 4800 µM

OCC1O[C@@H](O/N=C/c2ccnc3ccccc23)C(O)[C@@H](O)C1O (stereo partly specified)
Kd: 620 µM

OCC1O[C@@H](O/N=C/c2ccc3ccccc3n2)C(O)[C@@H](O)C1O (stereo partly specified)
Kd: 1400 µM

OCC1O[C@@H](O/N=C/c2cc(Br)ccc2O)C(O)[C@@H](O)C1O (stereo partly specified)
Kd: 1650 µM

OCC1O[C@@H](O/N=C/c2cccc(F)c2)C(O)[C@@H](O)C1O (stereo partly specified)
Kd: 1600 µM

OCC1O[C@@H](O/N=C/c2ccccc2)C(O)[C@@H](O)C1O (stereo partly specified)
Kd: 3500 µM

O=[N+]([O-])c1ccccc1/C=N/O[C@@H]1OC(CO)C(O)[C@H](O)C1O (stereo partly specified)
Kd: 9300 µM

OCC1O[C@@H](O/N=C/c2c3ccccc3cc3ccccc23)C(O)[C@@H](O)C1O (stereo partly specified)
Kd: 2500 µM

OCC1O[C@@H](O/N=C/CCc2ccccc2)C(O)[C@@H](O)C1O (stereo partly specified)
Kd: > 10000 µM

OCC1O[C@@H](O/N=C/c2cc(O)ccc2O)C(O)[C@@H](O)C1O (stereo partly specified)
Kd: 780 µM

OCC1O[C@@H](O/N=C/Cc2ccccc2)C(O)[C@@H](O)C1O (stereo partly specified)
Kd: > 10000 µM

OCC1O[C@@H](O/N=C/c2cccnc2)C(O)[C@@H](O)C1O (stereo partly specified)
Kd: 3300 µM

O=[N+]([O-])c1ccc(O)c(/C=N/O[C@@H]2OC(CO)C(O)[C@H](O)C2O)c1 (stereo partly specified)
Kd: 360 µM

CCC(/C=N/O[C@@H]1OC(CO)C(O)[C@H](O)C1O)CC (stereo partly specified)
Kd: 7300 µM

OCC1O[C@@H](O/N=C/c2ccncc2)C(O)[C@@H](O)C1O (stereo partly specified)
Kd: > 10000 µM

OCC1O[C@@H](O/N=C/c2ccco2)C(O)[C@@H](O)C1O (stereo partly specified)
Kd: 6400 µM

O=C[C@H](O)[C@@H](O)[C@@H](O)[C@H](O)CO [GALACTOSE]
Kd: 4000 µM

OC[C@H]1O[C@@H](O)[C@H](O)[C@@H](O)[C@H]1O [b-D-GALACTOSE]
Kd: 4400 µM

LACTOSE, ANHYDROUS
Kd: 220 µM
